Reference: US10227295B2, “Selective histone deactylase 6 inhibitors” (H. LEE MOFFITT CANCER CENTER AND RESEARCH INSTITUTE, INC., priority 2013, dated 2019)
One block for each compound: values may come before it.

Key:
[1] = target: human, recombinant full-length HDAC6 (Homo sapiens (Human), UniProt Q9UBN7); assay: HDAC inhibition assay (Reaction Biology), HDAC6; type: biochemical
[2] = test system: B16 murine melanoma cells; assay: B16 melanoma cell growth inhibition MTS assay; type: cell-based; conditions: for GI50: Mus musculus, B16 murine melanoma cells; for GI50 / growth inhibition of B16 melanoma cells (in words): 48 h, MTS
Method: B16 murine melanoma cells were plated at 5×10^3/well in 96 well flat bottom plates. The following day, media was changed to that containing various concentrations of HDACi or matched DMSO vehicle concentrations diluted in complete medium done in triplicate. Cells were incubated for 48 hours at 37° C. and 5% CO2. […] Briefly, 20 μL of reagent were added per well and incubated at 37° C. for 3 hours. […] All values were then normalized and expressed as a percentage of medium control (100%).

[3] = test system: acetyl-tubulin and acetyl-histone3 in human melanoma cell lines; assay: Western blot of HDAC substrate acetylation in human melanoma cells; type: cell-based; conditions: 24 hrs
Method: Error bars represent standard deviation from triplicates. This figure is representative of three independent experiments. (F,G,H) Cell cycle analysis of melanoma WM164, WM983A and WM793 human melanoma cell lines stained with propidium iodide. Data is representative of three experiments with similar results.
To confirm the selectivity of isotype specific HDACi, Western blot analysis was performed on the acetylation status of known HDAC substrates including histone H3 and H4, which are known Class I HDAC targets, and α-tubulin, a target for HDAC6. The doses required to impart the anti-proliferative effect coincided with that needed to increase acetylation of the respective HDAC substrates (FIG. 41F-41H). […] Conversely, HDAC6 selective inhibitors (HDAC6i) increase α-tubulin acetylation but not histone acetylation (FIG. 41F).

[4] = test system: acetyl-α-tubulin and acetyl-H3 in B16 melanoma cells; assay: Tubulin and histone acetylation Western blot assay; type: cell-based, murine; conditions: low nanomolar treatment, 24 h
Method: […]. B16 melanoma cells were plated at 10^5 cells/well in 12 well plates and allowed to adhere overnight. A 50 mM stock of compound was then added by serial dilutions in complete medium to the indicated concentrations. Cells were incubated for 24 h under humidified conditions (37° C., 5% CO2). Wells were then washed with cold PBS, and cells were lysed in a buffer containing 10 mM Tris-HCl pH 8.0, 10% SDS, […], 100 mM DTT, and 1× protease inhibitor (Roche). Cells were lysed for 30 min on ice and then sonicated for 8 min (8 cycles of 30 s on/30 s rest). Cells were then boiled for 10 min with 6× gel loading buffer and resolved on 4-15% gradient gels and subsequently transferred onto nitrocellulose membranes. Membranes were blocked with 5% milk in PBS-T and detection of specific antigens using antibodies against acetyl-H3 and H3 (Cell Signaling), and acetyl-α-tubulin and α-tubulin (Sigma). Bands were detected by scanning blots with LI-COR Odyssey imaging system using both 700 and 800 channels.

[5] = test system: melanoma antigens gp100, MART1, TYRP1 and TYRP2 in human melanoma cell lines; assay: Tumor antigen expression by qRT-PCR; type: cell-based; conditions: 48 hours
Method: (D) Expression of tumor antigens was measured in human WM164 non-target and HDAC6KD cells. (E) Expression of tumor antigens mart-1 and gp-100 was measured by western blot.
In addition to direct cytotoxicity, pan-HDACi have immunologic effects on melanoma including modulation of MHC, co-stimulatory molecules, and cytokine production. In both human and murine melanoma cell lines, genetic (FIG. 43A) and pharmacologic (FIG. 43B) disruption of HDAC6 led to increased surface expression of MHC I by flow cytometry.

[6] = test system: B16 melanoma; assay: In vivo B16 melanoma tumor growth in C57BL/6 mice; conditions: 25 mg/kg, intraperitoneal, three times weekly, B16 subcutaneous
[7] = test system: Human cutaneous T-cell lymphoma (CTCL) HuT-78; assay: Cell viability CellTiter 96 Aqueous ONE, HuT-78; type: cell-based; conditions: HuT-78, 24 hrs, compared to DMSO
Method: (§1) Human cutaneous T-cell lymphoma (CTCL) HuT-78 (A), murine mantle cell lymphoma (MCL) (B), and murine melanoma B16 (C) and SM1 (D) cells were incubated with JB7-19, JB7-22, JB720 at different concentrations for 24 hrs. Cell viability was measured using CellTiter 96 Aqueous ONE solution (Promega, Madison, Wis.) and compared to DMSO treated control samples. Error bars represent standard deviation from triplicates.

[8] = test system: IL-10 production in murine peritoneal elicited primary macrophages (PEM); assay: IL-10 production ELISA, PEM; type: cell-based; conditions: 24 hrs
Method: (§2) Murine peritoneal elicited primary macrophages (PEM)(A) and murine RAW264.7 (B) cells were incubated with JB7-19, JB7-22, JB720 at the concentration indicated on each chart. After 24 hrs, the production of IL-10 was measured by ELISA.

[9] = test system: murine mantle cell lymphoma (MCL); assay: Cell viability CellTiter 96 Aqueous ONE, MCL; type: cell-based; conditions: 24 hrs, compared to DMSO
Method: as §1

[10] = test system: murine melanoma SM1; assay: Cell viability CellTiter 96 Aqueous ONE, SM1; type: cell-based; conditions: SM1, 24 hrs, compared to DMSO
Method: as §1

[11] = test system: murine melanoma B16; assay: Cell viability CellTiter 96 Aqueous ONE, B16; type: cell-based; conditions: B16, 24 hrs, compared to DMSO
Method: as §1

[12] = test system: IL-10 production in murine RAW264.7 cells; assay: IL-10 production ELISA, RAW264.7; type: cell-based; conditions: RAW264.7, 24 hrs
Method: as §2

[13] = test system: NRAS and BRAF mutant human melanoma cell lines; assay: Human melanoma cell proliferation MTS assay; type: cell-based; conditions: 24 h, panel of human melanoma cell lines
Method: Cell proliferation was evaluated using various pan- and isotype selective HDACi in a broad panel of human melanoma cell lines. Briefly, cells were plated at 10×10^3/well in a 96 well flat bottom plate. The following day, media was changed to that containing different concentrations of HDACi or matched DMSO vehicle concentrations diluted in complete medium done in triplicate, all with a final concentration of less than 0.1% DMSO. Cells were incubated for 24 hours at 37° C. and 5% CO2. […] All values were then normalized and expressed as a percentage of medium control growth.

[14] = test system: STAT3 in APCs; assay: STAT3 phosphorylation and recruitment to IL-10 gene promotor in APCs; type: cell-based
Source text: FIG. 26 is a flow chart depicting the experimental design of the in vitro antigen-presenting studies.
Human MCL cells display an enhanced expression of HDAC6. Disruption of HDAC6 in malignant B-cells inhibits their proliferation and is associated with induction of apoptosis. Pharmacologic or genetic disruption of HDAC6 in MCL cells augment their antigen-presenting capabilities leading to better T-cell activation and restoration of function of anergic Tcells in vitro. […] Disclosed herein is the rationale to use HDAC6 specific inhibitor(s) alone or in combination with STAT3 inhibitors in MCL.

[15] = test system: antigen-specific T-cell responses; assay: In vivo antigen-specific T-cell response to vaccination; set-up: species or system mice; conditions: in vivo treatment
Source text: Tubastatin A-treated macrophages are better activators of […] and restore the responsiveness of anergicT-cells in vitro. […] Mechanistically, Tubastatin-A disrupt […] pathway and tip the balance towards immunogenic rather than tolerogenic macrophages.

Chain of human, recombinant full-length HDAC6 (Q9UBN7 whole entry): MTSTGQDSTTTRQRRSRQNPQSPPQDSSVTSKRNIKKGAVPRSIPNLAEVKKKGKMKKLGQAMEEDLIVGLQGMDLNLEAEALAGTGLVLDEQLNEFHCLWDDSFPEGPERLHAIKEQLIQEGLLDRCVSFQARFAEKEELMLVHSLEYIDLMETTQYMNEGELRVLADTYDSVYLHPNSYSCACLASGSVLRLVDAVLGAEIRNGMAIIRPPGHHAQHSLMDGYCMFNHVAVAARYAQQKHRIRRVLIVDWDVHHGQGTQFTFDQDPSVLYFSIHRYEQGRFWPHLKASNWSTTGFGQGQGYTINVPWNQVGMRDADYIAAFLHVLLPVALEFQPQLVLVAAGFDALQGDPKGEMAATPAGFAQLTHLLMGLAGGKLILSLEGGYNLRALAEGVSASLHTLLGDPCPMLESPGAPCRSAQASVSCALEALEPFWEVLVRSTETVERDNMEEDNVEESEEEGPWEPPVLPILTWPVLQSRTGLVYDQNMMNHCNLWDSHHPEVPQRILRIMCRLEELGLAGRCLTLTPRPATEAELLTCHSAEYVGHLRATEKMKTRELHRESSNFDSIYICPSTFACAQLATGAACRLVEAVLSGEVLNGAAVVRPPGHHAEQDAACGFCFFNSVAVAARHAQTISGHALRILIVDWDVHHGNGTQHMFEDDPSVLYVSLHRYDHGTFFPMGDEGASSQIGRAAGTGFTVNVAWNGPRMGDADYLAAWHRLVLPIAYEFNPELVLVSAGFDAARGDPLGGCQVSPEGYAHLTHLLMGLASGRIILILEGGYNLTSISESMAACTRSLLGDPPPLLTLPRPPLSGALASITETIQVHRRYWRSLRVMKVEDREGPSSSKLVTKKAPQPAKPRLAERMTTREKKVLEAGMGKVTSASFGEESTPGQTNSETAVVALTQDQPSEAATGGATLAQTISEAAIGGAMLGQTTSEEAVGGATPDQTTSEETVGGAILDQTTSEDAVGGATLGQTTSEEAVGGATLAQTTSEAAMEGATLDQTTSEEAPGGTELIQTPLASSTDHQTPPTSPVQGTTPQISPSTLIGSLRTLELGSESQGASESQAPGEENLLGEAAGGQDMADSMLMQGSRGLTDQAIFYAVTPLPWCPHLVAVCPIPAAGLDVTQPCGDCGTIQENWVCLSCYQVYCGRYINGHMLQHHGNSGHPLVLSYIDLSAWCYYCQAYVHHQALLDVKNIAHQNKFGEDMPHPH

Fold Selective (HDAC1/HDAC6) ([1]; Table 1A): 2
Compound: COc1ccccc1NC(=O)NCc1ccc(C(N)=O)cc1 [Compound 1]

GI50 [2]: 75.3 ± 1.23 µM
Compound: COc1ccccc1NC(=O)N(CCCN(C)C)Cc1ccc(C(=O)NO)cc1 [Compound 5a, 4-((1-(3-(dimethylamino)propyl)-3-(2-methoxyphenyl)ureido)methyl)-N-hydroxybenzamide]

GI50 [2]: > 100 µM
Compound: COc1ccccc1NC(=O)N(CCCO)Cc1ccc(C(=O)NO)cc1 [Compound 5b]
growth inhibition of B16 melanoma cells (in words) [2]: performed very poorly

GI50 [2]: 30.4 ± 1.32 µM
Compound: COc1ccccc1NC(=O)N(CCc1c[nH]c2ccccc12)Cc1ccc(C(=O)NO)cc1 [Compound 5c, 4-((1-(2-(1H-indol-3-yl)ethyl)-3-(2-methoxyphenyl)ureido)methyl)-N-hydroxybenzamide]

GI50 [2]: 18.4 ± 1.23 µM
Compound: COc1ccccc1NC(=O)N(CCc1ccc(O)cc1)Cc1ccc(C(=O)NO)cc1 [Compound 5d, N-hydroxy-4-((1-(4-hydroxyphenethyl)-3-(2-methoxyphenyl)ureido)methyl)-benzamide]

GI50 [2]: 22.2 ± 1.41 µM
Compound: COCCCN(Cc1ccc(C(=O)NO)cc1)C(=O)Nc1ccccc1 [Compound 5e, N-hydroxy-4-((1-(3-methoxypropyl)-3-phenylureido)methyl)benzamide]

Compound: CCCCN(Cc1ccc(C(=O)NO)cc1)C(=O)Nc1ccccc1 [Compound 5g, 4-((1-butyl-3-phenylureido)methyl)-N-hydroxybenzamide]
acetylation of α-tubulin and histone [3]: increase acetyl-tubulin without modifying the acetylation status of Histone 3
acetyl α-tubulin levels [4]: dose-dependant increase
histone H3 acetylation ([4]; increase only at 1 and 10 μM): without a concamanent elevation
melanoma antigen expression at the mRNA level [5]: upregulation of melanoma antigens gp100, MART1, TYRP1 and TYRP2
tumor growth [6]: delayed tumor growth
less potent than LBH589 in inducing murine B16 melanoma cell death [2]: approximately 100 fold
growth inhibition of B16 melanoma cells (in words) [2]: capable of inhibiting the growth

GI50 [2]: 15.4 ± 1.2 µM
Compound: O=C(NO)c1ccc(CN(CCc2ccccc2)C(=O)Nc2ccccc2)cc1 [Compound 5h, N-hydroxy-4-((1-phenethyl-3-phenylureido)methyl)benzamide]
growth inhibition of B16 melanoma cells (in words) [2]: capable of inhibiting the growth

GI50 [2]: 65.8 ± 1.19 µM
Compound: CCCCN(C(=O)NCc1ccc(C(=O)NO)cc1)c1ccccc1 [Compound 8a, 4-((3-butyl-3-phenylureido)methyl)-N-hydroxybenzamide]

GI50 [2]: > 100 µM
Compound: COCCCN(C(=O)NCc1ccc(C(=O)NO)cc1)c1ccccc1 [Compound 8b, N-hydroxy-4-((3-(3-methoxypropyl)-3-phenylureido)methyl)benzamide]

GI50 [2]: > 100 µM
Compound: CCN(C(=O)NCc1ccc(C(=O)NO)cc1)c1ccccc1 [Compound 8c, 4-((3-ethyl-3-phenylureido)methyl)-N-hydroxybenzamide]

Fold Selective (HDAC1/HDAC6) ([1]; Table 2, cyclic urea compounds): 386
Compound: COc1ccccc1N1C(=O)N(Cc2ccc(C(=O)NO)cc2)C(C)(C)C1=O [Compound 10a]

Fold Selective (HDAC1/HDAC6) ([1]; Table 2, cyclic urea compounds): 531
Compound: CC(C)[C@@H]1C(=O)N(c2ccccc2)C(=O)N1Cc1ccc(C(=O)NO)cc1 [Compound 10b]

Fold Selective (HDAC1/HDAC6) ([1]; Table 2, cyclic urea compounds): 295
Compound: O=C(NO)c1ccc(CN2C(=O)N[C@@H](Cc3ccccc3)C2=O)cc1 [Compound 11a]

Compound: CCCCN(Cc1ccc(C(=O)NO)cc1)C(=O)Nc1ncccn1 [JB6-22, 4-((1-butyl-3-(pyrimidin-2-yl)ureido)methyl)-N-hydroxybenzamide]
cell proliferation / viability [7]: decrease cell proliferation
acetylation of α-tubulin and histone [3]: increase acetyl-tubulin without modifying the acetylation status of Histone 3
IL-10 production [8]: inhibit IL-10 production
cell proliferation / viability [9]: decrease cell proliferation
cell proliferation / viability [10]: decrease cell proliferation
cell proliferation / viability [11]: decrease cell proliferation
IL-10 production [12]: inhibit IL-10 production

Compound: CCCCN(Cc1ccc(C(=O)NO)cc1)C(=O)Nc1ccc2cn[nH]c2c1 [JB7-19, 4-((1-butyl-3-(1H-indazol-6-yl)ureido)methyl)-N-hydroxybenzamide]
cell proliferation / viability [7]: decrease cell proliferation
acetylation of α-tubulin and histone [3]: increase acetyl-tubulin without modifying the acetylation status of Histone 3
IL-10 production [8]: inhibit IL-10 production
cell proliferation / viability [9]: decrease cell proliferation
cell proliferation / viability [10]: decrease cell proliferation
cell proliferation / viability [11]: decrease cell proliferation
IL-10 production [12]: inhibit IL-10 production

GI50 [2]: 0.15 µM
IC50 ([13]; read-out: IC50 range, inhibition of proliferation): 0.01 to 0.05 µM
Compound: Cc1[nH]c2ccccc2c1CCNCc1ccc(/C=C/C(=O)NO)cc1 [LBH589, reference compound]

GI50 [2]: 40.5 ± 1.21 µM
Compound: CN1CCc2c(c3ccccc3n2Cc2ccc(C(=O)NO)cc2)C1 [Tubastatin A, reference compound]
acetylation of α-tubulin and histone [3]: increase acetyl-tubulin without modifying the acetylation status of Histone 3
melanoma antigen expression at the mRNA level [5]: upregulation of melanoma antigens gp100, MART1, TYRP1 and TYRP2
STAT3 phosphorylation and recruitment to the IL-10 gene promotor [14]: decreased STAT3 phosphorylation and recruitment to the IL-10 gene promotor
tumor growth [6]: delayed tumor growth
antigen-specific T-cell responses to vaccination [15]: enhances antigen-specific T-cell responses to vaccination
concentration range inhibiting proliferation (in words) [13]: low micromolar range

Compound: Trichostatin A [TSA]
concentration range inhibiting proliferation (in words) [13]: low 100 nM range
